Experimental data from patent publication US5834453A, “Methods for the manufacture and use of antimicrobial sterol conjugates” (Lehigh University, priority 1997, dated 1998).
Values after ≈ are worked out from the molar mass of the structure shown. “Also recorded” adds a separate entry of the source. Read-outs that look alike come from different tables or passages of the source.

How the values were obtained:
gram positive cocci = assay: Antimicrobial activity (MIC), gram positive cocci; format: cell-based; conditions: of all the mimics tested
Protocol: (§1) The antimicrobial activity of the compounds according to the present invention were compared with the results obtained for squalamine as reported in Proc. Nat. Acad. Sci. USA 90:1354 (1993), supra, the disclosure of which is incorporated in toto herein. The data reported in the following table is the minimum inhibitory concentration (MIC) required for complete inhibition of microbial growth. The MIC was determined utilizing known micro-broth dilution methods in which inocula of 10^6 /ml of the test organism were incubated in 0.5× trypticase soy broth at 35° C. for 24 hours. MIC's were also tested under various pH conditions, with calcium chloride or magnesium chloride, or with immobilized horse serum.

[1] = test system: various groups of microorganisms; assay: Antimicrobial activity (MIC), all microorganisms tested; format: cell-based
Protocol: as §1
(§2) The numbers in parentheses contained in the table correspond to accession numbers with the American Type Culture Collection (reference strains were either obtained from the American Type Culture Collection or from the Microbiology Laboratory at Memorial Sloan-Kettering Cancer Center; Bacterial strains were maintained on Columbia 5% sheep blood agar plates, and fungi were maintained on Sabouraud Dextrose agar plates).

A. fumigatus (H29709) = assay: MIC, micro-broth dilution; format: cell-based; conditions: Aspergillus fumigatus, 35° C., 24 hours, read-out: ANTIMICROBIAL ACTIVITY (MIC)
Protocol: as §1, §2

S. aureus (25923) = assay: MIC, micro-broth dilution; format: cell-based; conditions: Staphylococcus aureus, 35° C., 24 hours, read-out: ANTIMICROBIAL ACTIVITY (MIC)
Protocol: as §1, §2

S. aureus (H20809) = assay: MIC, micro-broth dilution; format: cell-based; conditions: Staphylococcus aureus, 24 h, read-out: ANTIMICROBIAL ACTIVITY (MIC)
Protocol: as §1, §2

S. agalactiae (13813) = assay: MIC, micro-broth dilution; format: cell-based; conditions: Streptococcus agalactiae, 35° C., 24 hours, read-out: ANTIMICROBIAL ACTIVITY (MIC)
Protocol: as §1, §2

P. aeruginosa (10145) = assay: MIC, micro-broth dilution; format: cell-based; conditions: Pseudomonas aeruginosa, 35° C., 24 hours, read-out: ANTIMICROBIAL ACTIVITY (MIC)
Protocol: as §1, §2

E. faecium (T6480-9) = assay: MIC, micro-broth dilution; format: cell-based; conditions: Enterococcus faecium, 35° C., 24 hours, read-out: ANTIMICROBIAL ACTIVITY (MIC)
Protocol: as §1, §2

E. cloacae (13047) = assay: MIC, micro-broth dilution; format: cell-based; conditions: Enterobacter cloacae, 35° C., 24 hours, read-out: ANTIMICROBIAL ACTIVITY (MIC)
Protocol: as §1, §2

S. pyrogenes (19615) = assay: MIC, micro-broth dilution; format: cell-based; conditions: 24 h, read-out: ANTIMICROBIAL ACTIVITY (MIC)
Protocol: as §1, §2

E. faecalis (29212) = assay: MIC, micro-broth dilution; format: cell-based; conditions: Enterococcus faecalis, 35° C., 24 hours, read-out: ANTIMICROBIAL ACTIVITY (MIC)
Protocol: as §1, §2

K. pneumoniae (13883) = assay: MIC, micro-broth dilution; format: cell-based; conditions: Klebsiella pneumoniae, read-out: ANTIMICROBIAL ACTIVITY (MIC)
Protocol: as §1, §2

P. vulgaris (13315) = assay: MIC, micro-broth dilution; format: cell-based; conditions: Proteus vulgaris, 35° C., 24 hours, read-out: ANTIMICROBIAL ACTIVITY (MIC)
Protocol: as §1, §2

S. aureus (29213) = assay: MIC, micro-broth dilution; format: cell-based; conditions: Staphylococcus aureus, 24 h, read-out: ANTIMICROBIAL ACTIVITY (MIC)
Protocol: as §1, §2

S. marcescens (13880) = assay: MIC, micro-broth dilution; format: cell-based; conditions: for MIC: Serratia marcescens, 24 h, read-out: ANTIMICROBIAL ACTIVITY (MIC)
Protocol: as §1, §2

E. coli (25922) = assay: MIC, micro-broth dilution; format: cell-based; conditions: Escherichia coli, 35° C., 24 hours, read-out: ANTIMICROBIAL ACTIVITY (MIC)
Protocol: as §1, §2

A. fumigatus (H1120) = assay: MIC, micro-broth dilution; format: cell-based; conditions: Aspergillus fumigatus, 35° C., 24 hours, read-out: ANTIMICROBIAL ACTIVITY (MIC)
Protocol: as §1, §2

C. neoformans (90012) = assay: MIC, micro-broth dilution; format: cell-based; conditions: Cryptococcus neoformans, 24 h, read-out: ANTIMICROBIAL ACTIVITY (MIC)
Protocol: as §1, §2

C. neoformans (M68979) = assay: MIC, micro-broth dilution; format: cell-based; conditions: Cryptococcus neoformans, 24 h, read-out: ANTIMICROBIAL ACTIVITY (MIC)
Protocol: as §1, §2

S. epidermidis (12228) = assay: MIC, micro-broth dilution; format: cell-based; conditions: Staphylococcus epidermidis, 35° C., 24 hours, read-out: ANTIMICROBIAL ACTIVITY (MIC)
Protocol: as §1, §2

P. aeruginosa (2853) = assay: MIC, micro-broth dilution; format: cell-based; conditions: Pseudomonas aeruginosa, 24 h, read-out: ANTIMICROBIAL ACTIVITY (MIC)
Protocol: as §1, §2

C. albicans (90028) = assay: MIC, micro-broth dilution; format: cell-based; conditions: Candida albicans, 35° C., 24 hours, read-out: ANTIMICROBIAL ACTIVITY (MIC)
Protocol: as §1, §2

S. pneumoniae (6305) = assay: MIC, micro-broth dilution; format: cell-based; conditions: Streptococcus pneumoniae, 35° C., 24 hours, read-out: ANTIMICROBIAL ACTIVITY (MIC)
Protocol: as §1, §2

sheep red blood cells = assay: Hemolytic activity, minimal hemolytic concentration (MHC); format: cell-based;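 as to MCC: MCC here is the minimal hemolytic concentration (MHC)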
Protocol: (§3) Hemolytic activity of the squalamine mimics according to the present invention were also studied by incubating sheep red blood cells for 24 hours at 37° C. in saline (final concentration of 0.5%) with or without respective concentrations of the squalamine mimics. The minimal hemolytic concentration (MHC) was determined as the lowest concentration of a mimic that raised visible hemolysis.

[2] = as above; format: cell-based, sheep; conditions: for MCC at 24 h: sheep, red blood cells
Protocol: as §3

fungi = assay: Antimicrobial activity (MIC), fungi; format: cell-based; conditions: of all the mimics tested
Protocol: as §1

SMILES	antimicrobial activity (in words) [1]	MIC (A. fumigatus (H29709))	MIC (S. aureus (25923))	MIC (S. aureus (H20809))	MIC (S. agalactiae (13813))	MIC (P. aeruginosa (10145))	MIC (E. faecium (T6480-9))	MIC (E. cloacae (13047))	MIC (S. pyrogenes (19615))	MIC (E. faecalis (29212))	MIC (P. vulgaris (13315))	MIC (S. aureus (29213))	MIC (S. marcescens (13880))	MIC (E. coli (25922))	MIC (A. fumigatus (H1120))	MIC (C. neoformans (90012))	MIC (C. neoformans (M68979))	MIC (S. epidermidis (12228))	MIC (P. aeruginosa (2853))	MIC (C. albicans (90028))	further results
C[C@H](CCC(=O)NCCCNCCCCNCCCN)[C@H]1CC[C@H]2[C@@H]3CC[C@@H]4C[C@H](O)CC[C@]4(C)[C@H]3CC[C@]12C [SM-25]	highly active; also recorded: more activity than SM-8, SM-14, and SM-22	12.5 mg/L (≈ 22.3 µM)	0.78 mg/L (≈ 1.39 µM)	0.39 mg/L (≈ 0.695 µM)	0.78 mg/L (≈ 1.39 µM)	3.13 mg/L (≈ 5.58 µM)	3.13 mg/L (≈ 5.58 µM)	> 100 mg/L	0.78 mg/L (≈ 1.39 µM)	3.13 mg/L (≈ 5.58 µM)	12.5 mg/L (≈ 22.3 µM)	0.78 mg/L (≈ 1.39 µM)	> 100 mg/L	1.56 mg/L (≈ 2.78 µM)	12.5 mg/L (≈ 22.3 µM)	0.39 mg/L (≈ 0.695 µM)	0.39 mg/L (≈ 0.695 µM)	0.39 mg/L (≈ 0.695 µM)	0.78 mg/L (≈ 1.39 µM)	3.13 mg/L (≈ 5.58 µM)	potency ranking against gram positive cocci (gram positive cocci): most potent activity against gram positive cocci and fungi of all the mimics tested; MIC (K. pneumoniae (13883); 24 h): > 100 mg/L; MIC (S. pneumoniae (6305)): 3.13 mg/L (≈ 5.58 µM); hemolytic activity (in words) (sheep red blood cells): unwanted hemolytic activity; minimal hemolytic concentration (MHC) at 24 h ([2]; sheep red blood cells, 24 hours at 37° C. in saline): 50 µg/mL; potency ranking against fungi (fungi): most potent activity against gram positive cocci and fungi of all the mimics tested
C[C@H](CCC(=O)NCCCNCCCCNCCCN)[C@H]1CC[C@H]2[C@@H]3C[C@H](O)[C@@H]4C[C@H](O)CC[C@]4(C)[C@H]3CC[C@]12C [SM-28]	lesser activity	25 mg/L (≈ 43.3 µM)	6.25 mg/L (≈ 10.8 µM)	6.25 mg/L (≈ 10.8 µM)	12.5 mg/L (≈ 21.7 µM)	25 mg/L (≈ 43.3 µM)	50 mg/L (≈ 86.7 µM)	> 100 mg/L	1.56 mg/L (≈ 2.7 µM)	50 mg/L (≈ 86.7 µM)	50 mg/L (≈ 86.7 µM)	6.25 mg/L (≈ 10.8 µM)	> 100 mg/L	50 mg/L (≈ 86.7 µM)	25 mg/L (≈ 43.3 µM)	3.13 mg/L (≈ 5.43 µM)	3.13 mg/L (≈ 5.43 µM)	3.13 mg/L (≈ 5.43 µM)	25 mg/L (≈ 43.3 µM)	6.25 mg/L (≈ 10.8 µM)	MIC (K. pneumoniae (13883); 24 h): > 100 mg/L; MIC (S. pneumoniae (6305)): 50 mg/L (≈ 86.7 µM); MCC at 24 h [2]: > 100 µg/mL
C[C@H](CCC(=O)NCCCNCCCCNCCCN)[C@H]1CC[C@H]2[C@@H]3[C@H](O)C[C@@H]4C[C@H](O)CC[C@]4(C)[C@H]3CC[C@]12C [SM-34]	highly active	12.5 mg/L (≈ 21.7 µM)	0.78 mg/L (≈ 1.35 µM)	1.56 mg/L (≈ 2.7 µM)	1.56 mg/L (≈ 2.7 µM)	25 mg/L (≈ 43.3 µM)	6.25 mg/L (≈ 10.8 µM)	12.5 mg/L (≈ 21.7 µM)	0.78 mg/L (≈ 1.35 µM)	3.13 mg/L (≈ 5.43 µM)	12.5 mg/L (≈ 21.7 µM)	1.56 mg/L (≈ 2.7 µM)	12.5 mg/L (≈ 21.7 µM)	3.13 mg/L (≈ 5.43 µM)	12.5 mg/L (≈ 21.7 µM)	0.78 mg/L (≈ 1.35 µM)	3.13 mg/L (≈ 5.43 µM)	0.78 mg/L (≈ 1.35 µM)	12.5 mg/L (≈ 21.7 µM)	3.13 mg/L (≈ 5.43 µM)	MIC (K. pneumoniae (13883); K. pneumoniae (13883), 35° C., 24 hours): 8.25 mg/L (≈ 14.3 µM); activity against S. marcescens (S. marcescens (13880); in words): found even against S. marcescens; also recorded: effective against S. marcescens; MIC (S. pneumoniae (6305)): 3.13 mg/L (≈ 5.43 µM); hemolytic activity (in words) (sheep red blood cells): unwanted hemolytic activity; MCC at 24 h [2]: 25 µg/mL
